Like-named read-outs stand apart in the source and are kept apart here.
Legend:
winter wheat = test system: winter wheat
Procedure: The experiment was established using the long strip method, in four repetitions Gross area of each plot was 48 m^2, while the harvest area was 23.25 m^2 net. Following variants of treatment were tested: • 1. Control—no stimulant application, standard fungicide programme • 2. Stimulant application at BBCH 32, standard fungicide programme • 3. Stimulant application at BBCH 32, no fungicide application • 4. Stimulant application at BBCH 55 and 10-12 days later, standard fungicide programme • 5. […] In this experiment, standard NPK fertilization was applied, using both bulk and liquid fertilizers.
The experiment was established using the long strip method, in four repetitions Gross area of each plot was 48 m2, while the harvest area was 23.25 m2 net. Following variants of treatment were tested: • 1. Control—no stimulant application, standard fungicide programme, • 2. Stimulant application at BBCH 32, standard fungicide programme • 3. Stimulant application at BBCH 32, no fungicide application • 4. Stimulant application at BBCH 55 and 10-12 days later, standard fungicide programme • 5. […] In the experiment, uniform NPK fertilization was applied, using both bulk and liquid fertilizers.

lettuce [1] = test system: lettuce
From the text: The purpose of the study was to determine the effect of foliar spraying with test solutions on lettuce (Lactuca sativa L. ‘Zeralda’) plants. The plants were sprayed 7 and 14 days after transplanting to a permanent site. […] After another 7 days, drought stress was induced (plants in the selected combinations were not watered until symptoms of leaf wilting appeared), followed by proper watering of the plants again. Control plants were watered in turn to a constant weight. After 3 days after re-watering, chlorophyll fluorescence was measured (OJIP test, methodology described, among others, in Kalaji H. M., 2011. Impact of abiotic stress factors on chlorophyll fluorescence in plants of selected barley cultivars Hordeum vulgare L. SGGW Publishing House, Warsaw [https://badanieroslin.pl/wp-content/uploads/2018/11/Oddzialywanie-abiotycznych-czynnikow. . . ..pdf]) and the condition of the plants was assessed.
The measurement was carried out after inducing drought stress, followed by re-watering the plants to a constant weight. […] This parameter is lowered by stresses.

lettuce [2] = details: 3-chlorosalicylate 100 mg/L double application, benzothiadiazole salt 50 mg/L single application
Procedure: The purpose of the study was to determine the effect of foliar spraying with test solutions on lettuce plants (Lactuca sativa L. ‘Zeralda’) under abiotic stress conditions—low temperature. After 7 and 14 days after transplanting the plants to a permanent place, spraying of the plants was carried out. […] After another 7 days, low temperature stress was induced—plants were grown in three glass chambers with a day temperature of 22° C. and night temperatures of 4, 12 and 20° C. until harvest.

[3] = BBCH 32, standard fungicide protection, 80 mg/L, benzothiadiazole salt 30 mg/L
[4] = BBCH 32, stimulant only, 80 mg/L, benzothiadiazole salt 30 mg/L
[5] = BBCH 55, standard fungicide protection, 80 mg/L, benzothiadiazole salt 30 mg/L
[6] = BBCH 55, without fungicide, 80 mg/L, benzothiadiazole salt 30 mg/L
[7] = first sampling date, 80 mg/L, benzothiadiazole salt 30 mg/L
[8] = last sampling date, late milk, 80 mg/L, benzothiadiazole salt 30 mg/L
[9] = Control (watered), double application, 3-chlorosalicylate 100 mg/L, benzothiadiazole salt 50 mg/L
[10] = Control (watered), single application, 50 mg/L
[11] = Drought, double application, 3-chlorosalicylate 100 mg/L, benzothiadiazole salt 50 mg/L
[12] = Drought, single application, 50 mg/L
[13] = double application, 3-chlorosalicylate 100 mg/L, benzothiadiazole salt 50 mg/L

SMILES: C[N+](C)(C)CCO.O=C([O-])c1cccc2nnsc12
- increase in calcium uptake (winter wheat; [3]): 7%
- increase in gluten content of wheat grain (winter wheat; [3]): 9%
- increase in magnesium uptake (winter wheat; [3]): 8%
- increase in nitrogen uptake (winter wheat; [3]): 7%
- increase in phosphorus uptake (winter wheat; [3]): 9%
- increase in potassium uptake (winter wheat; [3]): 7%
- increase in protein content of wheat grain (winter wheat; [3]): 12%
- increase in calcium uptake (winter wheat; [4]): 7%
- increase in gluten content of wheat grain (winter wheat; [4]): 8%
- increase in magnesium uptake (winter wheat; [4]): 9%
- increase in nitrogen uptake (winter wheat; [4]): 8%
- increase in phosphorus uptake (winter wheat; [4]): 9%
- increase in potassium uptake (winter wheat; [4]): 8%
- increase in protein content of wheat grain (winter wheat; [4]): 11%
- increase in calcium uptake (winter wheat; [5]): 12%
- increase in gluten content of wheat grain (winter wheat; [5]): 10%
- increase in magnesium uptake (winter wheat; [5]): 11%
- increase in nitrogen uptake (winter wheat; [5]): 12%
- increase in phosphorus uptake (winter wheat; [5]): 11%
- increase in potassium uptake (winter wheat; [5]): 7%
- increase in protein content of wheat grain (winter wheat; [5]): 12%
- increase in calcium uptake (winter wheat; [6]): 8%
- increase in gluten content of wheat grain (winter wheat; [6]): 9%
- increase in magnesium uptake (winter wheat; [6]): 10%
- increase in nitrogen uptake (winter wheat; [6]): 15%
- increase in phosphorus uptake (winter wheat; [6]): 11%
- increase in potassium uptake (winter wheat; [6]): 6%
- increase in protein content of wheat grain (winter wheat; [6]): 11%
- fresh weight of aboveground part higher than control (winter wheat; first sampling date (beginning of shooting), first of two sprayed objects (with / without fungicide, respectively), 80 mg/L, benzothiadiazole salt 30 mg/L): 11%
- dry root mass higher than control (winter wheat; [7]): 14%
- fresh root mass higher than control (winter wheat; [7]): 12%
- dry weight of aboveground part higher than control (winter wheat; first sampling date, first of two sprayed objects, 80 mg/L, benzothiadiazole salt 30 mg/L): 10%
- fresh weight of aboveground part higher than control (winter wheat; first sampling date, second of two sprayed objects (with / without fungicide, respectively), 80 mg/L, benzothiadiazole salt 30 mg/L): 14%
- dry weight of aboveground part higher than control (winter wheat; first sampling date, second of two sprayed objects, 80 mg/L, benzothiadiazole salt 30 mg/L): 14%
- SPAD chlorophyll readings versus control (winter wheat; first term, stimulant at BBCH 32, with or without fungicide): significantly higher
- more aboveground biomass, BBCH 55 treatment compared to control (winter wheat; [8]): 30%
- more aboveground biomass, BBCH 55 treatment compared to plants sprayed at an earlier stage (winter wheat; [8]): 13%
- more root biomass, BBCH 55 treatment compared to control (winter wheat; [8]): 21%
- more root biomass, BBCH 55 treatment compared to plants sprayed at an earlier stage (winter wheat; [8]): 14%
- fresh and dry root weight versus other experimental facilities (winter wheat; second sampling date): comparable
- fresh and dry matter yields versus other experimental facilities (winter wheat; second sampling date, end of heading): comparable
- SPAD chlorophyll readings (winter wheat; second term, stimulant at BBCH 32 without fungicide versus other objects): highest
- chlorophyll content of wheat leaves versus control (winter wheat; third term, with or without fungicide): significantly higher
- ABS/RC (lettuce [1]; [9]): 1.46 b
- DIo/RC (lettuce [1]; [9]): 0.28 b
- ETo/RC (lettuce [1]; [9]): 0.93 ab
- F0 (lettuce [1]; [9]): 7100 b
- FM (lettuce [1]; [9]): 45265 b
- FM/F0 (lettuce [1]; [9]): 6.52 ab
- Fv (lettuce [1]; [9]): 38164 b
- Fv/F0 (lettuce [1]; [9]): 5.52 abc
- Fv/FM (lettuce [1]; [9]): 0.85 abc
- Pi_Abs (PSII functioning index calculated on the basis of energy absorption) (lettuce [1]; [9]): 10.33 ab
- TRo/RC (lettuce [1]; [9]): 1.74 b
- ABS/RC (lettuce [1]; [10]): 1.45 b
- DIo/RC (lettuce [1]; [10]): 0.28 b
- ETo/RC (lettuce [1]; [10]): 0.87 ab
- F0 (lettuce [1]; [10]): 6762 b
- FM (lettuce [1]; [10]): 41874 b
- FM/F0 (lettuce [1]; [10]): 6.19 abc
- Fv (lettuce [1]; [10]): 35112 b
- Fv/F0 (lettuce [1]; [10]): 5.19 abc
- Fv/FM (lettuce [1]; [10]): 0.84 abc
- Pi_Abs (PSII functioning index calculated on the basis of energy absorption) (lettuce [1]; [10]): 4.47 a
- TRo/RC (lettuce [1]; [10]): 1.74 b
- ABS/RC (lettuce [1]; [11]): 1.14 a
- DIo/RC (lettuce [1]; [11]): 0.20 a
- ETo/RC (lettuce [1]; [11]): 0.84 ab
- F0 (lettuce [1]; [11]): 4965 a
- FM (lettuce [1]; [11]): 34715 a
- FM/F0 (lettuce [1]; [11]): 6.99 bc
- Fv (lettuce [1]; [11]): 29750 b
- Fv/F0 (lettuce [1]; [11]): 5.99 ab
- Fv/FM (lettuce [1]; [11]): 0.86 c
- Pi_Abs (PSII functioning index calculated on the basis of energy absorption) (lettuce [1]; [11]): 12.61 days
- TRo/RC (lettuce [1]; [11]): 1.34 a
- ABS/RC (lettuce [1]; [12]): 1.12 a
- DIo/RC (lettuce [1]; [12]): 0.24 a
- ETo/RC (lettuce [1]; [12]): 0.75 a
- F0 (lettuce [1]; [12]): 5675 a
- FM (lettuce [1]; [12]): 32147 a
- FM/F0 (lettuce [1]; [12]): 5.67 a
- Fv (lettuce [1]; [12]): 26472 a
- Fv/F0 (lettuce [1]; [12]): 4.67 a
- Fv/FM (lettuce [1]; [12]): 0.83 a
- Pi_Abs (PSII functioning index calculated on the basis of energy absorption) (lettuce [1]; [12]): 7.47 b
- TRo/RC (lettuce [1]; [12]): 1.36 a
- % dry matter (leaf), Average (lettuce [1]; [13]): 4.67 b %
- % dry matter (leaf), Drought (lettuce [1]; [13]): 3.61 a %
- % dry matter (leaf), Watered (lettuce [1]; [13]): 5.73 c %
- Head and root weight, Average (lettuce [1]; [13]): 69.4 a g/plant
- Head and root weight, Drought (lettuce [1]; [13]): 70.6 ab g/plant
- Head and root weight, Watered (lettuce [1]; [13]): 69.2 a g/plant
- Head weight, Average (lettuce [1]; [13]): 53.4 a g/plant
- Head weight, Drought (lettuce [1]; [13]): 51.6 ab g/plant
- Head weight, Watered (lettuce [1]; [13]): 51.6 b g/plant
- RWC (relative water content), Watered (lettuce [1]; [13]): 74.3 b %
- RWC, Average (lettuce [1]; [13]): 75.0 a %
- RWC, Drought (lettuce [1]; [13]): 64.0 a %
- % dry matter (leaf), Average (lettuce [1]; single application, 50 mg/L): 3.75 b %
- % dry matter (leaf), Drought (lettuce [1]; single application, 50 mg/L): 3.59 b %
- % dry matter (leaf), Watered (lettuce [1]; single application, 50 mg/L): 3.51 b %
- Head and root weight, Average (lettuce [1]; single application, 50 mg/L): 84.6 b g/plant
- Head and root weight, Drought (lettuce [1]; single application, 50 mg/L): 84.4 bc g/plant
- Head and root weight, Watered (lettuce [1]; single application, 50 mg/L): 85.2 c g/plant
- Head weight, Average (lettuce [1]; single application, 50 mg/L): 65.1 b g/plant
- Head weight, Drought (lettuce [1]; single application, 50 mg/L): 62.5 c g/plant
- Head weight, Watered (lettuce [1]; single application, 50 mg/L): 65.3 c g/plant
- RWC (relative water content), Watered (lettuce [1]; single application, 50 mg/L): 77.1 b %
- RWC, Average (lettuce [1]; single application, 50 mg/L): 74.5 a %
- RWC, Drought (lettuce [1]; single application, 50 mg/L): 71.5 ab %
- Head weight, 4° C. (lettuce [2]; night temperature 4° C.): 47.6 b g/plant
- Head weight, 12° C. (lettuce [2]; night temperature 12° C.): 54.9 b c g/plant
- Head weight, 20° C. (lettuce [2]; night temperature 20° C.): 65.1 b g/plant

— patent US20260041093A1, “Ionic Derivatives Of Aromatic Carboxylic Acid For Use As Plant Stimulants, Method For Stimulating Plants And Use Of These Derivatives For Manufacturing Compositions For Stimulating Plants” (FUNDACJA UNIWERSYTETU IM. ADAMA MICKIEWICZA W POZNANIU, priority 2022, published 2026)
